Results reported in US9957254B2, “Cyclohexen-1-yl-pyridin-2-yl-1h-pyrazole-4-carboxylic acid derivatives and the use thereof as soluble guanylate cyclase activators” (Novartis AG, priority 2014, dated 2018).

Target: T1, soluble guanylate cyclase (Homo sapiens, UniProt Q02153)
T1 construct: expressed in transfected cells
Assay: CHO cellular assay (cGMP production, Cisbio cGMP HTRF)
Assay type: cell-based
Conditions: CHO K1 cells overexpressing human GUCYA3/GUCYB3 (clone 8E10), 1 mM IBMX, 20 uM ODQ, 1 h room temperature, listed 0.5 nM means actual EC50 ≤0.5 nM (quantification limit)
Outline: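 CHO K1 cells stably expressing human GUCYA3/GUCYB3 (clone 8E10) treated with compound 1 h at room temperature in HBSS with 0.1% BSA, 1 mM IBMX and 20 uM ODQ (0.5% DMSO). cGMP measured by HTRF and interpolated from a standard curve; EC50 from 4-parameter sigmoidal fit, lower quantification limit 0.5 nM.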

T1 sequence (Q02108 whole entry partner): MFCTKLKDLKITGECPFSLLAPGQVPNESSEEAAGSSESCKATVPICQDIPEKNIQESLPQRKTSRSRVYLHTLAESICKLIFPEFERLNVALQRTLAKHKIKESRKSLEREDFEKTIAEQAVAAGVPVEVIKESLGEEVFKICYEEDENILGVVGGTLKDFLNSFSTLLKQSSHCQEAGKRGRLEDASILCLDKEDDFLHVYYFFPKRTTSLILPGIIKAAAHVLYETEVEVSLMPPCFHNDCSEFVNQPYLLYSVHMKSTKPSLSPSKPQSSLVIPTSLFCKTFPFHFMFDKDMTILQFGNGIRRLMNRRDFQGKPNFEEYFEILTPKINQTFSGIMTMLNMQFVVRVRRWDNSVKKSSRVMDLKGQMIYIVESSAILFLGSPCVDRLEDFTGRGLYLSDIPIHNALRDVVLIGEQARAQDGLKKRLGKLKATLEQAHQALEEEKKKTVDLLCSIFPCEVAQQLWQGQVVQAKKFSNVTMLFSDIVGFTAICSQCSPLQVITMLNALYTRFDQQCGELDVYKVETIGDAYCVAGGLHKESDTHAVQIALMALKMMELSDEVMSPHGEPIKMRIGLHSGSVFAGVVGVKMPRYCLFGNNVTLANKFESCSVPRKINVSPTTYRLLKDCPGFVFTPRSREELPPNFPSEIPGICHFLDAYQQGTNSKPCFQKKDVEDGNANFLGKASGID
T1 sequence (Q02153 whole entry): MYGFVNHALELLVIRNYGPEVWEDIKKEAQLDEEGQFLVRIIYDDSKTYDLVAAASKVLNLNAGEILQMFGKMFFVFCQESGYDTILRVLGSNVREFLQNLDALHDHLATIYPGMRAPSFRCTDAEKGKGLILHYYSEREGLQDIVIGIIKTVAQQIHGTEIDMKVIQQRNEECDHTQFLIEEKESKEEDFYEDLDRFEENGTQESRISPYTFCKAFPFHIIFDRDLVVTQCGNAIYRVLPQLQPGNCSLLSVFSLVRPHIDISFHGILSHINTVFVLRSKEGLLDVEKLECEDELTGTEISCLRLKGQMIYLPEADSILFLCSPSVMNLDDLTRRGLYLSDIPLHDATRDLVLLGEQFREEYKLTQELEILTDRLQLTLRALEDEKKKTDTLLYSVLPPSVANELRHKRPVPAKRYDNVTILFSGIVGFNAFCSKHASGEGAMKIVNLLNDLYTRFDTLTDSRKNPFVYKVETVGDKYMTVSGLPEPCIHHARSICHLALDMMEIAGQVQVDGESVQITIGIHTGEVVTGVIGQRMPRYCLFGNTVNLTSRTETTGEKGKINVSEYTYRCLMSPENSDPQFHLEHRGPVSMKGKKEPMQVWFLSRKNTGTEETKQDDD

Row | EC50 | Structure (SMILES)
1 | 2.4 nM | Cc1cc(C2CCN(C(=O)C3CC3)CC2)ccc1OCC1=C(c2cccc(-n3ncc(C(=O)O)c3C(F)(F)F)n2)CCC1 [Example 21, 1-(6-(2-((4-(1-(Cyclopropanecarbonyl)piperidin-4-yl)-2-methylphenoxy)methyl)cyclopent-1-en-1-yl)pyridin-2-yl)-5-(trifluoromethyl)-1H-pyrazole-4-carboxylic acid]
2 | 3.5 nM | Cc1cc(C2CCN(C(=O)N(C)C)CC2)ccc1OCC1=C(c2cccc(-n3ncc(C(=O)O)c3C(F)(F)F)n2)CCC1 [Example 23, 1-(6-(2-((4-(1-(Dimethylcarbamoyl)piperidin-4-yl)-2-methylphenoxy)methyl)cyclopent-1-en-1-yl)pyridin-2-yl)-5-(trifluoromethyl)-1H-pyrazole-4-carboxylic acid]
3 | 19 nM | Cc1cc(C2CCN(C(=O)CO)CC2)ccc1OCC1=C(c2cccc(-n3ncc(C(=O)O)c3C(F)(F)F)n2)CCC1 [Example 24-1, 1-(6-(2-((4-(1-(2-hydroxyacetyl)piperidin-4-yl)-2-methylphenoxy)methyl)cyclopent-1-en-1-yl)pyridin-2-yl)-5-(trifluoromethyl)-1H-pyrazole-4-carboxylic acid]
4 | 2.4 nM | CCC(=O)N1CCC(c2ccc(OCC3=C(c4cccc(-n5ncc(C(=O)O)c5C(F)(F)F)n4)CCC3)c(C)c2)CC1 [Example 24-2, 1-(6-(2-((2-Methyl-4-(1-propionylpiperidin-4-yl)phenoxy)methyl)cyclopent-1-en-1-yl)pyridin-2-yl)-5-(trifluoromethyl)-1H-pyrazole-4-carboxylic acid]
5 | 22 nM | COC(=O)N1CCC(c2ccc(OCC3=C(c4cccc(-n5ncc(C(=O)O)c5C(F)(F)F)n4)CCC3)c(C)c2)CC1 [Example 24-3, 1-(6-(2-((4-(1-(Methoxycarbonyl)piperidin-4-yl)-2-methylphenoxy)methyl)cyclopent-1-en-1-yl)pyridin-2-yl)-5-(trifluoromethyl)-1H-pyrazole-4-carboxylic acid]
6 | 2.4 nM | Cc1cc(C2CCN(S(C)(=O)=O)CC2)ccc1OCC1=C(c2cccc(-n3ncc(C(=O)O)c3C(F)(F)F)n2)CCC1 [Example 24-4, 1-(6-(2-((2-Methyl-4-(1-(methylsulfonyl)piperidin-4-yl)phenoxy)methyl)cyclopent-1-en-1-yl)pyridin-2-yl)-5-(trifluoromethyl)-1H-pyrazole-4-carboxylic acid]
7 | 5 nM | Cc1cc(C2CCN(CC(F)(F)F)CC2)ccc1OCC1=C(c2cccc(-n3ncc(C(=O)O)c3C(F)(F)F)n2)CCC1 [Example 25, 1-(6-(2-((2-Methyl-4-(1-(2,2,2-trifluoroethyl)piperidin-4-yl)phenoxy)methyl)cyclopent-1-en-1-yl)pyridin-2-yl)-5-(trifluoromethyl)-1H-pyrazole-4-carboxylic acid]
8 | ≤ 0.5 nM | CCc1cc(NCC2=C(c3cccc(-n4ncc(C(=O)O)c4C(F)(F)F)n3)CCCC2)ccc1C1CCN(C(=O)C2CC2)CC1 [Example 26, 1-(6-(2-(((4-(1-(Cyclopropanecarbonyl)piperidin-4-yl)-3-ethylphenyl)amino)methyl)cyclohex-1-en-1-yl)pyridin-2-yl)-5-(trifluoromethyl)-1H-pyrazole-4-carboxylic acid]
9 | 2.4 nM | Cc1cc(C2CCN(C(=O)C3CC3)CC2)ccc1NCC1=C(c2cccc(-n3ncc(C(=O)O)c3C(F)(F)F)n2)CCCC1 [Example 27-1, 1-(6-(2-(((4-(1-(Cyclopropanecarbonyl)piperidin-4-yl)-2-methylphenyl)amino)methyl)cyclohex-1-en-1-yl)pyridin-2-yl)-5-(trifluoromethyl)-1H-pyrazole-4-carboxylic acid]
10 | 5 nM | O=C(O)c1cnn(-c2cccc(C3=C(CNc4ccc(C5CCN(C(=O)C6CC6)CC5)cc4)CCCC3)n2)c1C(F)(F)F [Example 27-2, 1-(6-(2-(((4-(1-(Cyclopropanecarbonyl)piperidin-4-yl)phenyl)amino)methyl)cyclohex-1-en-1-yl)pyridin-2-yl)-5-(trifluoromethyl)-1H-pyrazole-4-carboxylic acid]
